Measurements as given in patent US20120101153A1, “ROCAGLAOL DERIVATIVES AS CARDIOPROTECTANT AGENTS AND AS ANTINEOPLASTIC AGENTS” (Universite De Strasbourg, priority 2008, published 2012).
Like-named read-outs stand apart in the source and are kept apart here.

How the values were obtained:
[1] = tested on: MCF7 (breast adenocarcinoma); assay: MTS assay, inhibition of cell proliferation, MCF7; format: cell-based; conditions: Homo sapiens, read-out: Inhibition of cell proliferation (IC50)
From the text: (§1) The medium was changed every 2-3 days.

[2] = tested on: HCT15 (colon adenocarcinoma); assay: MTS assay, inhibition of cell proliferation, HCT15; format: cell-based; conditions: Homo sapiens, read-out: Inhibition of cell proliferation (IC50)
From the text: as §1

[3] = tested on: Resistant MCF7 (MCF7R) cells; assay: MTS assay, inhibition of cell proliferation, MCF7R; format: cell-based; conditions: Homo sapiens, 72 h
From the text: as §1

[4] = tested on: HCT116 (colon adenocarcinoma); assay: MTS assay, inhibition of cell proliferation, HCT116; conditions: Homo sapiens
Experimental: (§4) The human cell lines HCT116 (colon adenocarcinoma), PC3 (prostate adenocarcinoma) and HCT15 (colon adenocarcinoma) were obtained from ECACC (Wiltshire, UK).
(§5) The cell lines HCT116, HCT15, MCF7, MDA435, MDA231, PC3, OV3, HL60R and HL60 were grown in RPMI medium, in particular supplemented with 10% fetal calf serum, in the presence of penicillin, streptomycin and fungizone in 75 cm^2 flask under 5% CO2.
(§6) Cells were plated in 96-well tissue culture plates in 200 μl medium and cultured during 24 h before to be treated with compounds dissolved in DMSO (compound concentrations at a range of 0.5 nM to 10 μM) using a Biomek 2000 or 3000 (Beckman). Controls received the same volume of DMSO (1% final volume). After a 72 h exposure, MTS reagent (Promega) was added and incubated for 3 h at 37° C. The absorbance was then monitored at 490 nm and results were expressed as the value [1-(OD490 treated/OD490 control)×100] corresponding to the percentage of inhibition of cell proliferation.

HepG2 (hepatocarcinoma) = assay: MTS assay, inhibition of cell proliferation, HepG2; format: cell-based; conditions: Homo sapiens, read-out: Inhibition of cell proliferation (IC50)
Experimental: Experiments were performed in duplicate (n=3).

[5] = tested on: KB (epidermoid carcinoma); assay: MTS assay, inhibition of cell proliferation, KB; conditions: Homo sapiens
Experimental: The human cell lines KB (epidermoid carcinoma) and HepG2 (hepatocarcinoma) were obtained from ECACC (Salisbury, UK) and grown in D-MEM medium supplemented with 10% fetal calf serum, in the presence of penicilline, streptomycine and fungizone in 75 cm^2 flask under 5% CO2.
as §6

[6] = tested on: HL60 (promyeocytic leukaemia); assay: MTS assay, inhibition of cell proliferation, HL60; conditions: Homo sapiens
Experimental: (§7) The human cell lines HL60 (promyeocytic leukaemia), MDA435 (breast ductal carcinoma; ATCC reference HBT129) and MDA231 (breast adenocarcinoma; ATCC reference HBT26) were obtained from ATCC. […] SK-OV3 cells (or OV3, ATCC reference HTB77) were kindly provided by NCI (Frederick, Md.).
(§8) The cell lines HCT116, HCT15, MCF7, MDA435, MDA231, PC3, OV3, HL60R and HL60 were grown in RPMI medium, in particular supplemented with 10% fetal calf serum, in the presence of penicillin, streptomycin and fungizone in 75 cm^2 flask under 5% CO2. […] The medium was changed every 2-3 days.
as §6

H9c2 cardiomyocytes [7] = conditions: H9c2
Experimental: as §1
(§2) H9c2 cells were plated for 24 h in 100 mm Petri dishes at 0,7×10^4 cells/cm^2. Next, the cells were washed and cultured for 12 h in glucose-free medium (Gibco, DMEM w-L-glutamine, w/o D-glucose, sodium pyruvate) supplemented with only 1% fetal calf serum. […] Cells were washed, and subsequently FACS analyses were performed.
(§3) Apoptosis was analysed by fluorescence-activated cell sorting analysis (FACS-Calibur, Becton-Dickinson Biosciences). 0,5×10^6 cells were harvested, washed with Annexin Binding Buffer (0,01 M HEPES, 0,14 M NaCl, 2,5 mM CaCl2) and labeled with annexin V (dilution 1:50) and propidium iodide (6,7 μg/ml). All assays were performed at least in triplicate, and the results were analyzed by BD Cell Quest Pro software (Becton-Dickinson Biosciences, Le Pont De Claix, France).

mice = assay: In vivo cardioprotection against doxorubicin in mice
Experimental: Administration of FL3 (0.1 mg/kg i.p., 2×/day for 4 days) protected mice from the cardiotoxicity induced by doxorubicine (20 mg/kg i.p.): they observed a 70% survival rate for the mice that received FL3. The survival rate for the mouse who received the vehicle was only 30% (see Table 3).

[8] = tested on: PC3 (prostate adenocarcinoma); assay: MTS assay, cytotoxicity, PC3; conditions: Homo sapiens, read-out: Cytotoxicity (IC50)
Experimental: as §4, §5, §6

SK-OV3 cells (OV3) = assay: MTS assay, cytotoxicity, OV3; conditions: Homo sapiens, SK-OV-3, read-out: Cytotoxicity (IC50)
Experimental: as §7, §8, §6

[9] = tested on: MDA435 (breast ductal carcinoma); assay: MTS assay, cytotoxicity, MDA435; conditions: Homo sapiens, MDA435, read-out: Cytotoxicity (IC50)
Experimental: as §7, §8, §6

H9c2 cardiomyocytes [10] = tested on: H9c2 cardiomyocytes
Experimental: as §2, §3

[11] = tested on: HL60R (resistant HL60 cells); assay: MTS assay, cytotoxicity, HL60R; conditions: Homo sapiens, read-out: Cytotoxicity (IC50)
Experimental: as §5, §6

[12] = tested on: MDA231 (breast adenocarcinoma); assay: MTS assay, cytotoxicity, MDA231; conditions: Homo sapiens, MDA-MB-231, read-out: Cytotoxicity (IC50)
Experimental: as §7, §8, §6

[13] = cumulative dose of doxorubicin 700 mg/m^2; cited from earlier work
[14] = HCT-15, HCT15, MTS, 72 h, Table 1
[15] = MTS, Table 1, read-out: Inhibition of cell proliferation (IC50)
[16] = HCT-116, 72 h, read-out: Inhibition of cell proliferation (IC50)
[17] = 72 h, read-out: Inhibition of cell proliferation (IC50)
[18] = HL-60, 72 h, read-out: Inhibition of cell proliferation (IC50)
[19] = HL-60, read-out: Cytotoxicity (IC50)

| Structure (SMILES) | IC50 ([1]; MCF7, MTS, 72 h, Table 1) [nM] | IC50 [2, 14] [nM] | IC50 [3, 15] [nM] | IC50 [4, 16] [nM] | IC50 (HepG2 (hepatocarcinoma); HepG2, MTS, 72 h, Table 1) [nM] | IC50 [5, 17] [nM] | IC50 [6, 18] [nM] | IC50 [8] [nM] | IC50 (SK-OV3 cells (OV3)) [nM] | IC50 [9] [nM] | IC50 [6, 19] [nM] | IC50 [12] [nM] | other results |
| --- | --- | --- | --- | --- | --- | --- | --- | --- | --- | --- | --- | --- | --- |
| COc1ccc([C@@]23Oc4cc(OC)cc(OC)c4[C@]2(O)[C@H](O)C[C@H]3c2ccccc2)cc1 (racemic) [FL1, rocaglaol] | 4 | 6 | 4 | 6 | 70 | 2 | 3 | – | – | – | – | – | – |
| COc1cc(OC)c2c(c1)O[C@@]1(c3ccc(Br)cc3)[C@H](c3ccccc3)C[C@@H](O)[C@@]21O (racemic) [FL3, bromo-demethoxy-rocaglaol] | – | – | – | < 1 | – | < 1 | < 1 | 17 | 8.5 | 8.7 | 5.5 | 3.8 | Diminution of the apoptosis induced by doxorubicin (H9c2 cardiomyocytes [7]; 1 nM FL3, 1 μM doxorubicin): 70%; Alleviation of the apoptosis induced by doxorubicin (H9c2 cardiomyocytes [7]; 50 nM FL3, 20 times superior concentration of doxorubicin): 61%; Concentration of maximum inhibition of doxorubicin-induced apoptosis (H9c2 cardiomyocytes [7]; FIG. 8B): 1 nM; Survival rate (mice; Doxorubicin (1 x, 20 mg/kg i.p.) + FL3 (8 x, 0.1 mg/kg i.p.)): 70%; Survival rate (mice; FL3 alone (8 x, 0.1 mg/kg i.p.)): 100%; IC50 ([1]; MCF7, 72 h): 1 nM; IC50 ([2]; HCT-15, 72 h): 1 nM; IC50 ([3]; read-out: Inhibition of cell proliferation (IC50)): < 1 nM; IC50 ([4]; HCT-116, read-out: Cytotoxicity (IC50)): 7.6 nM; IC50 (HepG2 (hepatocarcinoma); HepG2, 72 h): 4 nM; Effect on KRIBB3-induced cytotoxicity (H9c2 cardiomyocytes [10]; co-treatment FL3 100 nM with KRIBB3 1 μM): significantly alleviated; Effect on KRIBB3 worsening of doxorubicin cytotoxicity (H9c2 cardiomyocytes [10]; doxorubicin, KRIBB3 and FL3 all together): reversed; IC50 [11]: 4.5 nM; IC50 ([5]; read-out: Cytotoxicity (IC50)): 15 nM |
| COc1cccc2c1C(=O)c1c(O)c3c(c(O)c1C2=O)C[C@@](O)(C(=O)CO)C[C@@H]3O[C@H]1C[C@H](N)[C@H](O)[C@H](C)O1 [Doxorubicin, doxorubicin, reference compound] | 12 | 81 | 58 | 6 | 240 | 1 | 13 | 186 | 41 | 3.5 | 30 | 0.047 | Apoptosis induced (total apoptotic cells) (H9c2 cardiomyocytes [7]; 1 μM doxorubicin for 14 h): 32%; Survival rate (mice; Doxorubicin alone (1 x, 20 mg/kg i.p.)): 30%; Risk of developing congestive heart failure [13]: 48% |
| COc1ccc([C@@H]2C[C@@H](O)[C@@]3(O)c4c(OC)cc(OC)cc4O[C@@]23c2ccccc2)cc1 [FL4] | > 10000 | > 10000 | > 10000 | > 10000 | > 10000 | > 10000 | > 10000 | – | – | – | – | – | – |
| CCc1cc(-c2oncc2-c2ccc(OC)cc2)c(O)cc1OC [KRIBB3, reference compound] | – | – | – | – | – | – | – | – | – | – | – | – | Cytotoxicity of KRIBB3 on cardiomyocytes (H9c2 cardiomyocytes [10]; KRIBB3 1 μM, 1 h): induced a cytotoxicity |
